# Biological target: T1, PAN endonuclease domain from influenza A type virus (H1N1) (PAN, residues 1-197) (Influenza A virus, UniProt P03433)
# T1 construct: influenza A type virus (H1N1) (PAN, residues 1-197) was cloned; His tag (inferred from pET-28a vector and IMAC purification); made in house; host or cells: E. coli BL21 (DE3)
# Assay type: biochemical
# Conditions: ssDNA, 1 h, 37 °C; conivaptan 0–[…], dutasteride 0–1000 μM, rifaximin 0–1000 μM, lurasidone 0–3000 μM (Figure S1)
row,Compound,inhibition of the endonuclease activity of PAN (in words)
1,CS(=O)(=O)c1cccc(C[C@H](NC(=O)c2c(Cl)cc3c(c2Cl)CCN(C(=O)c2ccc4ccoc4c2)C3)C(=O)O)c1 [lifitegrast],inhibitory effect
2,C[C@]12C=CC(=O)N[C@@H]1CC[C@@H]1[C@@H]2CC[C@]2(C)[C@@H](C(=O)Nc3cc(C(F)(F)F)ccc3C(F)(F)F)CC[C@@H]12 [dutasteride],no inhibition
3,CO[C@H]1/C=C/O[C@@]2(C)Oc3c(C)c(O)c4c(O)c(c5c(nc6cc(C)ccn65)c4c3C2=O)NC(=O)/C(C)=C\C=C\[C@H](C)[C@H](O)[C@@H](C)[C@@H](O)[C@@H](C)[C@H](OC(C)=O)[C@@H]1C [rifaximin],no inhibition
4,O=C1[C@@H]2[C@H]3CC[C@H](C3)[C@@H]2C(=O)N1C[C@@H]1CCCC[C@H]1CN1CCN(c2nsc3ccccc23)CC1 [lurasidone],no inhibition

# — paper PMC8659148, “Drug Repurposing for Influenza Virus Polymerase Acidic (PA) Endonuclease Inhibitor” (Molecules, 2021)
